The results in this text go back to BindingDB's records for doi:10.1016/j.bmcl.2007.02.075 (Bayer Research Center, 2007).

For the experiment, the target named is RAC-alpha serine/threonine-protein kinase (Homo sapiens, UniProt P31749). Kind of experiment: Inhibition of pAkt.
RAC-alpha serine/threonine-protein kinase, sequence (P31749 whole entry): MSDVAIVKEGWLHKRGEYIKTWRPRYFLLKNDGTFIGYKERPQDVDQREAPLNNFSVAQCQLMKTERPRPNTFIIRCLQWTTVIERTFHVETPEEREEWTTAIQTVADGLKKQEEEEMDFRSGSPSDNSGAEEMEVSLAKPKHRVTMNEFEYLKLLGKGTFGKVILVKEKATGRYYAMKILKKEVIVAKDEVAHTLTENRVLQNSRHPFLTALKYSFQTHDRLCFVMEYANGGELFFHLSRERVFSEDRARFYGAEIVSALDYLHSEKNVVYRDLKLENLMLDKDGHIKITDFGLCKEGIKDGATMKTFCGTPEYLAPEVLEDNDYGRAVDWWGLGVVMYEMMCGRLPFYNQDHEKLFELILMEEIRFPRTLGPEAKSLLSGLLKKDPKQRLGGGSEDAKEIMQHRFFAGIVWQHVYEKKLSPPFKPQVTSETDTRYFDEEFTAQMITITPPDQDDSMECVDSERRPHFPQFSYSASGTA

For the compound `CCNC(=O)Nc1ccc(CNc2ncsc2C(=O)Nc2ccc3c(c2)OC(F)(F)O3)cn1` [1-(5-((5-((2,2-difluorobenzo[d][1,3]dioxol-5-yl)carbamoyl)thiazol-4-ylamino)methyl)pyridin-2-yl)-3-ethylurea], half-maximal inhibition (IC50) was put at 81 nM.

As for `CNC(=O)Nc1ccc(CNc2ncsc2C(=O)Nc2ccc3c(c2)OC(F)(F)O3)cn1` [1-(5-((5-((2,2-difluorobenzo[d][1,3]dioxol-5-yl)carbamoyl)thiazol-4-ylamino)methyl)pyridin-2-yl)-3-methylurea], it took 24 nM to reach half-maximal inhibition (IC50).

For the compound `CNC(=O)Nc1ccc(CNc2c(C(=O)Nc3ccc(SC(F)(F)F)cc3)cnn2C)cn1` [1-methyl-3-(5-((1-methyl-4-((4-(trifluoromethylthio)phenyl)carbamoyl)-1H-pyrazol-5-ylamino)methyl)pyridin-2-yl)urea], half-maximal inhibition (IC50) required 15 nM. Against the preceding compound, the IC50 is about 1.6-fold lower.
